Test results taken from BindingDB's records for doi:10.1038/46290 (University of Bristol, 1999).

Target: Glutamate receptor ionotropic, kainate 2 (Homo sapiens, UniProt Q13002)
Sequence (Q13002 whole entry): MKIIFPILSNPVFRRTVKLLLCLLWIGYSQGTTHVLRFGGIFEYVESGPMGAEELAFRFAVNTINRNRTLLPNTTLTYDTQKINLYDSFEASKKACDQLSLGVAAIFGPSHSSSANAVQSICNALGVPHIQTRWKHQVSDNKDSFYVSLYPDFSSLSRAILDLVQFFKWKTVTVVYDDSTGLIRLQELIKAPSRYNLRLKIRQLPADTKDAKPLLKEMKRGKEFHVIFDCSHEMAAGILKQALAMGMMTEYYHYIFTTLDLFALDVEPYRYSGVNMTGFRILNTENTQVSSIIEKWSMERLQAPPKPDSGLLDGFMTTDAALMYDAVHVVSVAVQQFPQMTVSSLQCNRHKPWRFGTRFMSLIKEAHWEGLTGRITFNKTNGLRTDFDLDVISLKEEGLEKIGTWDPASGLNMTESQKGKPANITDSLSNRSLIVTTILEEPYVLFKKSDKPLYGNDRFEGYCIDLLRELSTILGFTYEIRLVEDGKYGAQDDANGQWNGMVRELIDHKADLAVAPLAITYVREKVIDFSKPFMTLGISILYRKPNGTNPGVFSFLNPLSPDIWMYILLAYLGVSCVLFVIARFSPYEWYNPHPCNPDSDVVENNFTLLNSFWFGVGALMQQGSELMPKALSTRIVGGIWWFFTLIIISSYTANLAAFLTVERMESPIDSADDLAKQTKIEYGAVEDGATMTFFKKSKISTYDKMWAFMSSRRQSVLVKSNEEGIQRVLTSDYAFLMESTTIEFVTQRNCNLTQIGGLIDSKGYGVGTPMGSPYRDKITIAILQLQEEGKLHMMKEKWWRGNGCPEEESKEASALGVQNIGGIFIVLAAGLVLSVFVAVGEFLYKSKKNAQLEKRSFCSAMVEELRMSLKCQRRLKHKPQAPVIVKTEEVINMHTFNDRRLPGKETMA

Ki: > 10 µM
SMILES: O=C(O)c1ccc(C[C@H]2CC[C@H]3CN[C@H](C(=O)O)C[C@H]3C2)cc1 [LY 382884]
